For the assay, the system named is KRAS gene expression in HCT116 cells. In words: RT-PCR KRAS expression in HCT116. It counts as cell-based, human. As to conditions: HCT116, IC90 doses, up to 120 h. Here is the method: HCT116, H460, CCD 841 CoN and MRC-5 cells after treatment with UAs were collected, washed twice with ice-cold PBS and resuspended in […] of PBS. mRNA was isolated using High Pure RNA Isolation Kit according to the manufacturer’s instructions (Roche, Basel, Switzerland). Briefly, cells were lysed in lysis-binding buffer and transferred to a filter tube. Contaminating DNA was removed by 15 min incubation of the filter tube with DNase I solution. The filter tube was washed once with buffer I and twice with buffer II, and after centrifugation, total RNA was eluted using the elution buffer. RNA concentration was determined by NanoDrop One (Thermo Scientific); 1 µg of RNA was reverse transcribed using Transcriptor First Strand cDNA Synthesis Kit according to the manufacturer’s instructions (Roche) in 20 µL of reaction containing 1 µg of RNA, […] anchored-oligo(dT)18Primer, 8 mM MgCl2, 20 U of Protector RNase Inhibitor, deoxynucleotide mix (1 mM each) and 22 U of Transcriptor Reverse Transcriptase. The reverse transcription reaction was carried out for 30 min at 55 °C and stopped by heating to 85 °C for 5 min and placing on ice. The cDNA solution was stored at −20 °C until use. […] The relative expression level of MYC and KRAS was quantified using comparative method […]. The results were obtained from three independent experiments, each of which was analyzed at least twice.

Consider `Cc1ccc([N+](=O)[O-])c2c(NCCCN(C)CCCNc3ccc4ncn5c6ccccc6c(=O)c3c45)c3ccccc3nc12` [Compound C-2053], for which the “KRAS expression compared to untreated control” value is on record as “significant difference”.

These data come from PMC8955938, “c-Myc Protein Level Affected by Unsymmetrical Bisacridines Influences Apoptosis and Senescence Induced in HCT116 Colorectal and H460 Lung Cancer Cells” (International Journal of Molecular Sciences, 2022).
